The molecules below were run against T1, GST-tagged Tankyrase-1 (1023-1327 aa) (Homo sapiens, UniProt O95271) (assay: Tankyrase 1 autoparsylation assay (HTRF enzyme assay)).
T1 construct: GST-tagged Tankyrase-1 (1023-1327 aa)
Type: biochemical
Method: The autoparsylation assay was run in two steps: the enzymatic reaction in which GST-tagged Tankyrase-1, resp Tankyrase-2 transferred biotinylated ADP-ribose to itself from biotinylated NAD as co-substrate and the detection reaction where a time resolved FRET between cryptate labelled anti-GST bound to the GST tag of the enzyme and Xlent® labelled-streptavidin bound the biotin-parsylation residue was analysed. The autoparsylation activity was detectable directly via the increase in HTRF signal.
The autoparsylation assay was performed as 384-well HTRF® (Cisbio, Codolet, France) assay format in Greiner low volume nb 384-well microtiter plates and was used for high throughput screen. 250 nM GST-tagged Tankyrase-1 (1023-1327 aa), respectively about 250 nM GST-tagged Tankyrase-2 (873-1166 aa) and 5 μM bio-NAD (Biolog, Life science Inst., Bremen, Germany) as co-substrate were incubated in a total volume of 5 μl (50 mM HEPES, 4 mM Mg-chloride, 0.05% Pluronic F-68, 1.4 mM DTT, 0.5% DMSO, pH 7.7) in the absence or presence of the test compound (10 dilution concentrations) for 90 min at 30° C. The reaction was stopped by the addition of 1 μl 50 mM EDTA solution. 2 μl of the detection solution (1.6 μM SA-Xlent® (Cisbio, Codolet, France), 7.4 nM Anti-GST-K® (Eu-labelled anti-GST, Cisbio, Codolet, France) in 50 mM HEPES, 800 mM KF, 0.1% BSA, 20 mM EDTA, 0.1% CHAPS, pH 7.0) were added. After 1 h incubation at room temperature the HTRF was measured with an Envision multimode reader (Perkin Elmer LAS Germany GmbH) at excitation wavelength 340 nm (laser mode) and emission wavelengths 615 nm and 665 nm. The ratio of the emission signals was determined. The full value used was the inhibitor-free reaction. The pharmacological zero value used was XAV-939 (Tocris) in a final concentration of 5 μM. The inhibitory values (IC50) were determined using either the program Symyx Assay Explorer® or Condosseo® from GeneData.

T1 sequence (O95271 1023-1327): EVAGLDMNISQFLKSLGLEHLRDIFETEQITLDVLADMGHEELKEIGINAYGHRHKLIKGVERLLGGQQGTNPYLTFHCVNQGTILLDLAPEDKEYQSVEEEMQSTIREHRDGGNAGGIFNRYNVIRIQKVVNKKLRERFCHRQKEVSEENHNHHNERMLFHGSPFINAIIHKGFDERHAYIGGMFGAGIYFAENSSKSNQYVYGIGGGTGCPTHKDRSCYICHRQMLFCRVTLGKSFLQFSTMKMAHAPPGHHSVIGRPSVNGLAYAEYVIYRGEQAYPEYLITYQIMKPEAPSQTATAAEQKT

SMILES | IC50 [nM]
COc1ccc(N2CCN(c3nc4c(c(=O)[nH]3)CCCC4)CC2)cc1 [Compound A3, 2-[4-(4-methoxy-phenyl)-piperazin-1-yl]-5,6,7,8-tetrahydro-3H-quinazolin-4-one] | 300 to 3000
O=c1[nH]c(N2CCN(c3ccc(F)cc3)CC2)nc2c1CCCC2 [Compound A6, 2-[4-(4-Fluorophenyl)piperazin-1-yl]-5,6,7,8-tetrahydro-3H-quinazolin-4-one] | 300 to 3000
COc1cccc(N2CCN(c3nc4c(c(=O)[nH]3)CCCC4)CC2)c1 [Compound A7, 2-[4-(3-Methoxyphenyl)piperazin-1-yl]-5,6,7,8-tetrahydro-3H-quinazolin-4-one] | < 300
O=c1[nH]c(N2CCN(c3ccccc3Cl)CC2)nc2c1CCCC2 [Compound A9, 2-[4-(2-Chlorophenyl)piperazin-1-yl]-5,6,7,8-tetrahydro-3H-quinazolin-4-one] | < 300
COc1ccccc1N1CCN(c2nc3c(c(=O)[nH]2)CCCC3)CC1 [Compound A12, 2-[4-(2-Methoxyphenyl)piperazin-1-yl]-5,6,7,8-tetrahydro-3H-quinazolin-4-one] | < 300
N#Cc1ccccc1N1CCN(c2nc3c(c(=O)[nH]2)CCCC3)CC1 [Compound A33, 2-[4-(4-oxo-5,6,7,8-tetrahydro-3H-quinazolin-2-yl)piperazin-1-yl]benzonitrile] | < 300
COc1cc(F)ccc1N1CCN(c2nc3c(c(=O)[nH]2)CCCC3)CC1 [Compound A36, 2-[4-(4-fluoro-2-methoxy-phenyl)piperazin-1-yl]-5,6,7,8-tetrahydro-3H-quinazolin-4-one] | < 300
